In patent US20050239656A1, “Pyridine compounds or salts thereof and herbicides containing the same” (priority 2002, published 2005):

Tests used:
[1] = tested on: japanese bulrush; assay: Test Example 3: paddy pot test, application under submerged conditions; type: in vivo, Scirpus juncoides; details: submerged application at 0.5 leaf stage, visually observed 14 days after application, 0 = non-treated, 100 = complete kill
Summary of the method: (§1)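 Paddy soil pots; seeds sown, lightly covered; flooded 0.5–1 cm in greenhouse; wapato tubers planted day 1–2; flood raised to 3–4 cm. Submerged pipette application at 0.5 leaf / primary leaf stage. Visual score day 14, 0–100%.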

[2] = tested on: redroot pigweed; assay: Test Example 2: soil surface treatment, upland pot test; type: in vivo, Amaranthus retroflexus L.; details: active ingredient 1000 g/ha, observed 20th to 28th day
Summary of the method: (§2)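 Readout was visual percent growth control (0 matching untreated, 100 complete kill) at days 20–28. Compound, as emulsifiable concentrate or wettable powder at a preset active-ingredient rate in 1,500 L/ha water, was sprayed onto sown upland soil one day after sowing.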

[3] = tested on: soybean; assay: Test Example 1: foliage treatment, upland pot test; type: in vivo, Glycine max Merr.; details: crop, active ingredient 1000 g/ha, observed 18th to 23rd day, 0 = non-treated, 100 = complete kill
Summary of the method: (§3)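 Visual growth-control scores (0 = untreated, 100 = complete kill) were taken 18–23 days after foliar spraying of a wettable powder or emulsifiable concentrate, diluted in 500 L/ha water with 0.1% (v/v) spreader. Treatment leaf stages: barnyardgrass 1.3–2.8, rice 1.2–2.6, wheat 1.3–2.4, soybean 0.1–0.4.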

[4] = tested on: corn; assay: Test Example 2: soil surface treatment, upland pot test; type: in vivo, Zea mays L.; details: active ingredient 1000 g/ha, observed 20th to 28th day
Summary of the method: as §2

[5] = tested on: corn; assay: Test Example 1: foliage treatment, upland pot test; type: in vivo, Zea mays L.; details: crop, active ingredient 1000 g/ha, observed 18th to 23rd day, 0 = non-treated, 100 = complete kill
Summary of the method: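 Corn seeds were sown in upland field soil held in a 1/170,000 ha pot and grown to the 2.1 to 3.2 leaf stage. A wettable powder or emulsifiable concentrate of the test compound was diluted with water at 500 L/ha, given 0.1% (v/v) agricultural spreader, and sprayed onto the foliage with a small sprayer. Growth controlling degree (%) was scored visually 18th to 23rd days later, from 0 (non-treated) to 100 (complete kill).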

[6] = tested on: rice; assay: Test Example 2: soil surface treatment, upland pot test; type: in vivo, Oryza sativa L.; details: active ingredient 1000 g/ha, observed 20th to 28th day
Summary of the method: as §2

[7] = tested on: barnyardgrass; assay: Test Example 3: paddy pot test, application under submerged conditions; type: in vivo, Echinochloa crus-galli L.; details: submerged application at 0.5 leaf stage, visually observed 14 days after application, 0 = non-treated, 100 = complete kill
Summary of the method: as §1

[8] = tested on: japanese ribbon wapato; assay: as above; type: in vivo, Sagittaria pygniaea; details: submerged application at primary leaf stage, visually observed 14 days after application, 0 = non-treated, 100 = complete kill
Summary of the method: as §1

[9] = tested on: crabgrass; assay: Test Example 1: foliage treatment, upland pot test; type: in vivo, Digitaria sanguinalis L.; details: active ingredient 1000 g/ha, observed 18th to 23rd day, 0 = non-treated, 100 = complete kill
[10] = tested on: wheat; assay: Test Example 1: foliage treatment, upland pot test; type: in vivo, Triticum spp.; details: crop, active ingredient 1000 g/ha, observed 18th to 23rd day, 0 = non-treated, 100 = complete kill
Summary of the method: as §3

[11] = tested on: velvetleaf; assay: Test Example 2: soil surface treatment, upland pot test; type: in vivo, Abutilon theophrasti MEDIC.; details: active ingredient 1000 g/ha, observed 20th to 28th day
Summary of the method: as §2

[12] = tested on: redroot pigweed; assay: Test Example 1: foliage treatment, upland pot test; type: in vivo, Amaranthus retroflexus L.; details: active ingredient 1000 g/ha, observed 18th to 23rd day, 0 = non-treated, 100 = complete kill
[13] = tested on: green foxtail; assay: Test Example 1: foliage treatment, upland pot test; type: in vivo, Setaria viridis L.; details: active ingredient 1000 g/ha, observed 18th to 23rd day, 0 = non-treated, 100 = complete kill
[14] = tested on: tall morningglory; assay: Test Example 1: foliage treatment, upland pot test; type: in vivo, Ipomoea purpurea L.; details: active ingredient 1000 g/ha, observed 18th to 23rd day, 0 = non-treated, 100 = complete kill
Source text: Upland field soil was put into a 1/170,000 ha pot, and seed of various plants were sown. Then, when the plants reached predetermined leaf stages ((1) barnyardgrass: 1.3 to 2.8 leaf stages, (2) crabgrass: 1.0 to 2.8 leaf stages, (3) green foxtail: 1.3 to 2.6 leaf stages, (4) redroot pigweed: 0.1 to 1.2 leaf stages, (5) prickly sida: 0.1 to 1.2 leaf stages, (6) velvetleaf: 0.1 to 1.2 leaf stages, (7) tall morningglory: 0.1 to 1.5 leaf stages, (8) rice: 1.2 to 2.6 leaf stages, (9) wheat: 1.3 to 2.4 leaf stages, (10) corn, 2.1 to 3.2 leaf stages, (11) soybean: 0.1 to 0.4 leaf stage), a wettable powder or emulsifiable concentrate having the compound of the present invention formulated in accordance with a usual formulation method, was weighed so that the active ingredient would be a predetermined amount, and diluted with water in an amount of 500 L/ha. To the diluted solution, 0.1% (v/v) of agricultural spreader was added. The herbicide thus adjusted was applied by a small size sprayer for foliage treatment. On the 18th to 23rd days after the application of the herbicide, the growth of the respective plants was visually observed, and the herbicidal effects were evaluated by the growth controlling degrees (%) ranging from 0 (equivalent to the non-treated plot) to 100 (complete kill), whereby the results shown in Table 3, were obtained.

[15] = tested on: barnyardgrass; assay: Test Example 1: foliage treatment, upland pot test; type: in vivo, Echinochloa crus-galli L.; details: active ingredient 1000 g/ha, observed 18th to 23rd day, 0 = non-treated, 100 = complete kill
Summary of the method: as §3

[16] = tested on: prickly sida; assay: Test Example 2: soil surface treatment, upland pot test; type: in vivo, Sida spinosa L.; details: active ingredient 1000 g/ha, observed 20th to 28th day
Summary of the method: as §2

[17] = tested on: wheat; assay: as above; type: in vivo, Triticum spp.; details: active ingredient 1000 g/ha, observed 20th to 28th day
Summary of the method: as §2

[18] = tested on: rice (var. Nihonbare); assay: Test Example 3: paddy pot test, transplanted rice; type: in vivo, Oryza sativa L.; details: applied 4th day after transplantation, visually observed 21st day after application, 0 = non-treated, 100 = complete kill
Summary of the method: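 Visual crop-injury rating (0 = as untreated, 100 = complete kill, %) taken 21 days post-application. Treatment: formulated compound, water-diluted, pipetted into 3–4 cm flood water at a preset active-ingredient dose, 4 days after transplanting 2-leaf Nihonbare rice 3 cm deep in puddled paddy soil.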

[19] = tested on: soybean; assay: Test Example 2: soil surface treatment, upland pot test; type: in vivo, Glycine max Merr.; details: active ingredient 1000 g/ha, observed 20th to 28th day
Summary of the method: as §2

[20] = tested on: rice; assay: Test Example 1: foliage treatment, upland pot test; type: in vivo, Oryza sativa L.; details: crop, active ingredient 1000 g/ha, observed 18th to 23rd day, 0 = non-treated, 100 = complete kill
Summary of the method: as §3

[21] = tested on: barnyardgrass; assay: Test Example 2: soil surface treatment, upland pot test; type: in vivo, Echinochloa crus-galli L.; details: active ingredient 1000 g/ha, observed 20th to 28th day, 0 = non-treated, 100 = complete kill
Summary of the method: as §2

[22] = tested on: crabgrass; assay: as above; type: in vivo, Digitaria sanguinalis L.; details: active ingredient 1000 g/ha, observed 20th to 28th day
Summary of the method: as §2

[23] = tested on: prickly sida; assay: Test Example 1: foliage treatment, upland pot test; type: in vivo, Sida spinosa L.; details: active ingredient 1000 g/ha, observed 18th to 23rd day, 0 = non-treated, 100 = complete kill
[24] = tested on: green foxtail; assay: Test Example 2: soil surface treatment, upland pot test; type: in vivo, Setaria viridis L.; details: active ingredient 1000 g/ha, observed 20th to 28th day
Summary of the method: as §2

[25] = tested on: velvetleaf; assay: Test Example 1: foliage treatment, upland pot test; type: in vivo, Abutilon theophrasti MEDIC.; details: active ingredient 1000 g/ha, observed 18th to 23rd day, 0 = non-treated, 100 = complete kill

SMILES | Growth controlling degree (%) Redroot pigweed [2] | Growth controlling degree (%) Soybean [3] | Growth controlling degree (%) Corn [4] | Growth controlling degree (%) Corn [5] | Growth controlling degree (%) Rice [6] | Growth controlling degree (%) Crabgrass [9] | Growth controlling degree (%) wheat [10] | Growth controlling degree (%) Velvetleaf [11] | Growth controlling degree (%) Redroot pigweed [12] | Growth controlling degree (%) Green foxtail [13] | Growth controlling degree (%) Tall morningglory [14] | Growth controlling degree (%) Barnyardgrass [15] | Growth controlling degree (%) Prickly sida [16] | Growth controlling degree (%) wheat [17] | Growth controlling degree (%) Soyabean [19] | Growth controlling degree (%) Rice [20] | Growth controlling degree (%) Barnyardgrass [21] | Growth controlling degree (%) Crabgrass [22] | Growth controlling degree (%) Prickly sida [23] | Growth controlling degree (%) Velvetleaf [25] | other results
CC(C)C(c1cnccc1C(F)(F)F)N(C)C(=O)Cc1ccc(I)cc1 (stereo not drawn) [I-2] | 70% | 90% | 0% | 20% | 0% | 90% | 20% | 0% | 70% | 70% | 90% | 90% | 70% | 0% | 0% | 20% | 80% | 90% | 90% | 90% | Growth controlling degree (%) Japanese bulrush ([1]; active ingredient 250 g/ha): 90%; Growth controlling degree (%) Barnyardgrass ([7]; active ingredient 250 g/ha): 100%; Growth controlling degree (%) Japanese ribbon wapato ([8]; active ingredient 250 g/ha): 50%; Growth controlling degree (%) Rice ([18]; active ingredient 250 g/ha): 20%; Growth controlling degree (%) Green foxtail [24]: 80%
CC(C)C(c1cnccc1C(F)(F)F)N(C)C(=O)Cc1ccc(Br)cc1 (stereo not drawn) [I-10] | 60% | 90% | 10% | 60% | 30% | 95% | 30% | 60% | 90% | 90% | 95% | 90% | 60% | 20% | 30% | 30% | 100% | 100% | 90% | 95% | Growth controlling degree (%) Japanese bulrush ([1]; active ingredient 500 g/ha): 98%; Growth controlling degree (%) Barnyardgrass ([7]; active ingredient 500 g/ha): 100%; Growth controlling degree (%) Japanese ribbon wapato ([8]; active ingredient 500 g/ha): 10%; Growth controlling degree (%) Rice ([18]; active ingredient 500 g/ha): 10%; Growth controlling degree (%) Green foxtail [24]: 100%
CC(C)C(c1cnccc1C(F)(F)F)N(C)C(=O)Cc1ccccc1Br (stereo not drawn) [I-15] | 70% | 40% | 40% | 0% | 40% | 70% | 20% | 60% | 70% | 80% | 80% | 70% | 70% | 30% | 20% | 10% | 100% | 100% | 80% | 70% | Growth controlling degree (%) Japanese bulrush ([1]; active ingredient 250 g/ha): 95%; Growth controlling degree (%) Barnyardgrass ([7]; active ingredient 250 g/ha): 100%; Growth controlling degree (%) Japanese ribbon wapato ([8]; active ingredient 250 g/ha): 100%; Growth controlling degree (%) Rice ([18]; active ingredient 250 g/ha): 10%; Growth controlling degree (%) Green foxtail [24]: 100%
CC(C)C(c1cnccc1C(F)(F)F)N(C)C(=O)Cc1cccc(Br)c1 (stereo not drawn) [I-16] | 95% | 70% | 30% | 0% | 30% | 80% | 40% | 60% | 80% | 70% | 80% | 70% | 80% | 30% | 0% | 10% | 98% | 100% | 80% | 80% | Growth controlling degree (%) Japanese bulrush ([1]; active ingredient 250 g/ha): 90%; Growth controlling degree (%) Barnyardgrass ([7]; active ingredient 250 g/ha): 100%; Growth controlling degree (%) Japanese ribbon wapato ([8]; active ingredient 250 g/ha): 30%; Growth controlling degree (%) Rice ([18]; active ingredient 250 g/ha): 10%; Growth controlling degree (%) Green foxtail [24]: 100%
CC(C)COC(=O)N(C)C(c1cnccc1C(F)(F)F)c1cccc2ccccc12 (stereo not drawn) [I-52] |  | 0% |  | 60% |  | 80% | 10% |  | 60% | 20% | 95% | 50% |  |  |  | 10% |  |  | 70% | 95% | 
